Measured values reported in patent publication US20200001109A1, “Methods For Treating Hyperbilirubinemia With Stannsoporfin And Phototherapy” (INFACARE PHARMACEUTICAL CORPORATION, priority 2016, published 2020).

Experiments:
[1] = tested on: total serum bilirubin (TSB); assay: Phase 2b randomized, placebo-controlled trial of single IM stannsoporfin with phototherapy: efficacy on TSB; assay type: in vivo, human infants; details: for Rebound Hyperbilirubinemia N: TSB at or above PT threshold after discontinuation of initial PT; for LS Mean Difference vs Placebo in TSB at 48 hrs: difference in TSB percentage change from baseline vs placebo plus phototherapy; for PT Failure N: exchange transfusion, IVIG use, readmission for hyperbilirubinemia or re-started PT; for Time at which TSB crosses at or below the PT threshold, Median: plus phototherapy; for LS Mean Percentage Change in TSB at 48 hrs: single IM injection plus phototherapy, change from baseline, LOCF
Experimental: (§1) A Phase 2b multicenter, double-blind, randomized, placebo-controlled parallel group safety and efficacy trial of two doses of stannsoporfin administered as a single intramuscular injection in combination with phototherapy in term and near-term infants has been proposed and performed.
(§2) Infants will be randomized to one of three treatment arms: placebo, 3.0 mg/kg, or 4.5 mg/kg of stannsoporfin in a 1:1:1 ratio. Infants aged 0 to 48 hours (at the time the qualifying TSB is drawn) with ABO or Rh incompatibility who are DAT-positive, or age 0 to 72 hours (at the time the qualifying TSB is drawn) with G6PD deficiency, confirmed by a documented blood test, who require the initiation of phototherapy are eligible for the study. In addition, patients aged 0 to 48 hours (at the time the qualifying TSB is drawn) with ABO or Rh incompatibility who are DAT negative (or status unknown), and have an increased reticulocyte count (>6%), and require the initiation of phototherapy are eligible for the study.
Inclusion Criteria: 1) Term and near-term infants ≥35 and ≤43 weeks gestational age (GA), age 0-48 hours (at the time the qualifying TSB is drawn) with ABO or Rh incompatibility (anti C, c, D, E or e) who are DAT-positive, or age 0-72 hours (at the time the qualifying TSB is drawn) with G6PD deficiency as confirmed by a documented blood test; OR 2) Term and near-term infants ≥35 and ≤43 weeks GA, age 0-48 hours (at the time the qualifying TSB is drawn) with ABO or Rh incompatibility (anti C, c, D, E or e) who are DAT-negative (or status unknown) and have an increased reticulocyte count (>6%); parental or guardian written consent; birth weight ≥2500 grams; TSB at or above the age-specific threshold for initiating phototherapy per the AAP guidelines (see FIG. 1 and Tables 1, 2 and 3); and parents agree to observe light precautions for 10 days post treatment
Once the patient's TSB is at or above the age-specific threshold for phototherapy and all inclusion and no exclusion criteria are met (including laboratory criteria), patients will be immediately randomized to receive a single intramuscular dose of either placebo (saline), 3.0 mg/kg of stannsoporfin or 4.5 mg/kg of stannsoporfin.
Criteria for discontinuing phototherapy: The criteria for discontinuing phototherapy will be standardized. If a TSB measurement is obtained during phototherapy treatment that is below the age-specific threshold for phototherapy (FIG. 1), phototherapy should be discontinued. In order to check for rebound hyperbilirubinemia, a TSB level is to be obtained between 6 and 12 hours after phototherapy is discontinued (must be done before discharge). If the patient remains in the hospital and continues on phototherapy past 48 hours further assessments and procedures are to be conducted as listed in the Time and Event Table (Table 8).
Initiation of Phototherapy: Once the TSB result has been received, the administration of study drug and initiation of phototherapy should occur as soon as practical. phototherapy should be started within a window of no more than ±30 minutes from IMP administration.
Phototherapy must be narrow spectrum blue light with a single overhead unit. The height of the phototherapy unit should be adjusted to obtain an irradiance of 30 microwatts/cm2/nm at the level of the patient's abdomen. Irradiance should be measured and adjusted to maintain 30 microwatts/cm2/nm, until phototherapy is discontinued. The recordings are to be documented in the eCRF.
Monitoring during phototherapy: It is essential to protect the patient's eyes with opaque eye patches. These must be checked periodically to ensure complete eye coverage during phototherapy. Use of biliblankets or home phototherapy is not permitted. TSB levels will be done at 6, 12, 18, 24, 30, 36±2 h, and 48 hours±6 h after study drug administration (Table 8). If the patient continues on phototherapy past 48 hours, the TSB will be obtained every 12±6 h. […]

[2] = tested on: total serum bilirubin (TSB); details: 3.0 and 4.5 mg/kg stannsoporfin patients receiving phototherapy; previous study (placebo 41%); cited from earlier work
[3] = Phase 2b trial of stannsoporfin with phototherapy: safety (adverse events); assay type: in vivo, human infants
Experimental: as §1, §2
Safety outcome measures are: Incidence of adverse events and serious adverse events, changes in vital sign measurements, results of physical exam (PE) including eye and hearing assessment, results of neurologic exam, ECG assessments, clinical laboratory tests including hematology, serum chemistries, liver function and renal function tests. Adverse events and SAEs will be summarized for each treatment group and overall for both stannsoporfin treatment groups with the proportion of patients reporting each event. Actual values and change from baseline in vital signs, physical and neurologic exam and laboratory test parameters will be summarized for each treatment group and overall for both stannsoporfin treatment groups with descriptive statistics at each assessment obtained. Changes in ECG findings, ophthalmologic and audiology assessments will be summarized for each treatment group and overall for both stannsoporfin treatment groups with descriptive statistics at each assessment obtained, including changes from baseline to Day 30 (early term). Efficacy and safety parameters will also be analyzed according to DAT status.
The results from a Phase 2b multicenter, double blind, randomized, placebo controlled parallel group safety and efficacy trial of two doses of stannsoporfin administered as a single intramuscular (IM) injection in combination with phototherapy (PT) in term and near-term infants, all with an ABO/Rh incompatibility were highly statistically significant and positive. Ninety-one neonates (aged 24 hours of age, range 7 to 54 hours), all at medium to high risk of severe hyperbilirubinemia, all with an ABO/Rh incompatibility, birth weights of 2580 to 4930 grams, and gestational age of 35 to 42 weeks, were randomized to one of three treatment arms: placebo (saline), 3.0 mg/kg stannsoporfin, or 4.5 mg/kg of stannsoporfin. All were included in the intent-to-treat-primary efficacy and safety analyses.
TEAEs occurred in 59% of Stannsoporfin treated infants vs 52% among placebo. Serious TEAEs occurred in 15% of Stannsoporfin treated infants vs 20% of placebo. TEAEs related to phototherapy (eg skin rash, erythema) occurred in 16% of Stannsoporfin treated infants vs 10% of placebo.

[4] = Stannsoporfin 3.0 mg/kg (N = 30)
[5] = Stannsoporfin 4.5 mg/kg (N = 31)
[6] = Stannsoporfin Combined (N = 61)
[7] = both high dose (4.5 mg/kg) and low dose (3.0 mg/kg), compared with phototherapy and placebo
[8] = all treatment arms of the trial

In the case of `CCC1=C(C)c2cc3[n-]c(cc4[n-]c(cc5nc(cc1n2)C(C)=C5CC)c(C)c4CCC(=O)O)c(CCC(=O)O)c3C.[Cl-].[Cl-].[Sn+4]` [Stannsoporfin, tin-mesoporphyrin IX dichloride], the “PT Failure (%)” value [1, 4] is reported as “(10%)”, the “PT Failure Odds Ratio vs Placebo” value [1, 4] is reported as 0.31 and the “Rebound Hyperbilirubinemia (%)” value [1, 4] is reported as “(9%)”. The “Rebound Hyperbilirubinemia N” value [1, 4] was 0/30, the “LS Mean Difference vs Placebo in TSB at 48 hrs” value (“LS Mean Difference vs Placebo” for short) [1, 4] was −31.69 and the “PT Failure N” value [1, 4] was 3/30. The “Time at which TSB crosses at or below the PT threshold, Median” value (“Time at which TSB crosses” below) [1, 4] was 11.8 h, the “LS Mean Percentage Change in TSB at 48 hrs” value (shortened to “LS Mean Percentage Change”) [1, 4] was −9.5% and the “PT Failure (%)” value [1, 5] was “(3%)”. For the same compound, the “PT Failure Odds Ratio vs Placebo” value [1, 5] was 0.09, the “Rebound Hyperbilirubinemia (%)” value [1, 5] was “(3%)” and the “Rebound Hyperbilirubinemia N” value [1, 5] was 1/31. The “LS Mean Difference vs Placebo” value [1, 5] was −27.69, the “PT Failure N” value [1, 5] was 1/31 and the “Time at which TSB crosses” value [1, 5] was 10.6 h. The “LS Mean Percentage Change” value [1, 5] was −5.5%, the “PT Failure (%)” value [1, 6] was “(7%)” and the “PT Failure Odds Ratio vs Placebo” value [1, 6] was 0.20. For the same compound, the “Rebound Hyperbilirubinemia (%)” value [1, 6] was “(2%)”, the “Rebound Hyperbilirubinemia N” value [1, 6] was 1/61 and the “LS Mean Difference vs Placebo” value [1, 6] was −29.69. For the same compound, the “PT Failure N” value [1, 6] was 4/61, the “Time at which TSB crosses” value [1, 6] was 11.6 h and the “LS Mean Percentage Change” value [1, 6] was −7.4%. For the same compound, the “effect on percentage change in total serum bilirubin (TSB) at 24 hours after drug administration” value [1, 7] was “highly statistically significant (P<0.0001) positive effect”, the “effect on percentage change in total serum bilirubin (TSB) at 48 hours after drug administration” value [1, 7] was “highly significant (P<0.0001) positive effect” and the “effect on percentage change in total serum bilirubin (TSB) at 48 hours after drug administration” value ([1]; both high dose (4.5 mg/kg) and low dose (3.0 mg/kg), compared with phototherapy and placebo, listed as stannsoporfin) was “statistically significant positive effect”. For the same compound, the “increase in TSB at 48 hours” value [2] was 15%, the “Serious TEAEs, proportion of infants” value ([3]; Stannsoporfin treated infants (both doses) plus phototherapy, vs 20% of placebo) was 15% and the “treatment-emergent adverse events (TEAEs), proportion of infants” value ([3]; Stannsoporfin treated infants (both doses) plus phototherapy, vs 52% among placebo) was 59%. For the same compound, the “TEAEs related to phototherapy (eg skin rash, erythema), proportion of infants” value ([3]; Stannsoporfin treated infants (both doses), vs 10% of placebo) was 16%, the “discontinuation of the study due to an adverse event” value [3, 8] was “no infant discontinued the study due to an adverse event” and the infant deaths [3, 8] was “no infant deaths”. The safety signals ([3]; either dose (3.0 or 4.5 mg/kg)) was “no safety signals”.
